These results are taken from patent publication US9289364B2, “Tyrosinase inhibitors” (Avon Products, Inc., priority 2013, dated 2016).

One experiment concerns Mushroom tyrosinase. As to the kind of experiment: Mushroom tyrosinase assay (conversion of L-Tyrosine to DOPAchrome). The format is biochemical. The settings on record: 25° C., 30 min, absorbance 492 nm. The procedure:
Mushroom tyrosinase and L-Tyrosine were obtained from Sigma-Aldrich, Inc. (St. Louis, Mo.). The enzyme activity was measured in buffer containing 100 mM phosphate buffer pH 6.8, 5% absolute ethanol, 2 micrograms/milliliter mushroom tyrosinase, and 0.2 mg/ml L-Tyrosine. The reaction (conversion of L-Tyrosine to DOPAchrome) was conducted in triplicates at 25° C. for 30 min, and absorbance was then measured at 492 nm. Kojic Acid was used as a positive control inhibitor in these assays. Percent change in tyrosinase activity relative to vehicle control was calculated.

Another experiment deals with B16 mouse melanoma cells. Nature of the experiment: Inhibition of melanin production in B16 melanoma cell assay. The format is cell-based. The settings on record: 4 days, alpha MSH 2 nanogram/ml, normalized to cell viability (MTT). As to the method: The effects of various test compounds on melanin levels were determined by performing assays using B16 melanoma cells. These cells are known to constitutively produce melanin and are a commonly utilized and accepted model system for monitoring the inhibition of melanin synthesis. The B16 mouse melanoma cells were seeded (ATCC, cat. #: CRL-6475) into 96-well tissue culture-treated plates (BD Falcon) and treated with test actives or controls in phenol red free DMEM (Mediatech; cat. #: 17-205-CV) with 2 nanogram/ml of alpha MSH (Fluka; cat #:63605). The cells were examined for their ability to modulate pigment formation. […] Tests were performed in 6 replicates each. Following the treatment period (4 days), the level of pigment produced or melanin synthesized was quantified by reading the absorbance at 540 nm using a standard microplate reader (Tecan Group Ltd.).
After quantifying the amount of melanin, cell viability was determined using the MTT conversion method. The MTT conversion method measures the reduction of the MTT dye from a yellow colored, water-soluble, tetrazolium salt to a bluish-purple colored insoluble formazan precipitate by NAD(P)H-dependent microsomal dehydrogenase enzymes, which only function in viable cells. The intensity of the blue color is indicative of cell viability. After quantifying the amount of melanin pigment produced, the cells were exposed to MTT dye solution (1 mg/ml) for two to three hours. Formazan material was solubilized with reagent alcohol (95% ethanol: 5% isopropanol) and shaken on an orbital shaker for 15-30 minutes. MTT dye uptake and conversion by viable cells were determined by measuring the extracted formazan at 570 nm using a microplate reader. Total pigmentation was calculated, normalized to cell viability values and expressed as the average percent change in melanin activity relative to control of the six experiments performed.

Turning to `Cc1cc(C)cc(Nc2nc(-c3ccc(O)cc3O)cs2)c1` [AV4662], the “Tyrosinase Inhibition (percent change in tyrosinase activity compared to DMSO vehicle control)” value with Mushroom tyrosinase (concentration 0.0010%) was −46%. Moreover, the “B16 Assay Pigmentation Decrease (percent change in melanin compared to DMSO vehicle control)” value in the experiment with B16 mouse melanoma cells (concentration 0.0001%) is −57%.

In the case of `CN1CCN(c2nc(-c3ccc(O)cc3O)cs2)CC1` [AV5370], the “Tyrosinase Inhibition (percent change in tyrosinase activity compared to DMSO vehicle control)” value with Mushroom tyrosinase (concentration 0.0010%) is recorded as −75%; in the experiment on Mushroom tyrosinase (concentration 0.0100%), −59%. The “B16 Assay Pigmentation Decrease (percent change in melanin compared to DMSO vehicle control)” value in the experiment on B16 mouse melanoma cells (concentration 0.0001%) is recorded as −10%; in the experiment on B16 mouse melanoma cells (concentration 0.0010%) it was −77%.
